Source: patent US11117892B2, “Pyrrolo-pyridine derivative compound, method for preparing same, and pharmaceutical composition containing same as active ingredient for prevention or treatment of protein kinase-related diseases” (DAEGU-GYEONGBUK MEDICAL INNOVATION FOUNDATION, priority 2017, dated 2021)

Columns and labels:
Assay in all cases: scanMAX Kinase assay panel
Assay type in all cases: binding
PRKD1 = PRKD1 (Homo sapiens (Human), UniProt Q15139); conditions: read-out: % control
How it was run: (§1)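 Each compound is run against the kinase on the scanMAX selectivity panel. Its signal is then expressed relative to a DMSO negative control (100%) and a positive control compound (0%).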

KIT(V559D, T670I) = KIT(V559D, T670I) (Homo sapiens (Human), UniProt P10721, T670I/V559D); conditions: read-out: % control
How it was run: as §1

EPHA2 = EPHA2 (Homo sapiens (Human), UniProt P29317); conditions: read-out: % control
How it was run: as §1

ERN1 = ERN1 (Homo sapiens (Human), UniProt O75460); conditions: read-out: % control
How it was run: as §1

MKNK2 = MKNK2 (Homo sapiens (Human), UniProt Q9HBH9); conditions: read-out: % control
MKNK2, sequence (Q9HBH9 whole entry): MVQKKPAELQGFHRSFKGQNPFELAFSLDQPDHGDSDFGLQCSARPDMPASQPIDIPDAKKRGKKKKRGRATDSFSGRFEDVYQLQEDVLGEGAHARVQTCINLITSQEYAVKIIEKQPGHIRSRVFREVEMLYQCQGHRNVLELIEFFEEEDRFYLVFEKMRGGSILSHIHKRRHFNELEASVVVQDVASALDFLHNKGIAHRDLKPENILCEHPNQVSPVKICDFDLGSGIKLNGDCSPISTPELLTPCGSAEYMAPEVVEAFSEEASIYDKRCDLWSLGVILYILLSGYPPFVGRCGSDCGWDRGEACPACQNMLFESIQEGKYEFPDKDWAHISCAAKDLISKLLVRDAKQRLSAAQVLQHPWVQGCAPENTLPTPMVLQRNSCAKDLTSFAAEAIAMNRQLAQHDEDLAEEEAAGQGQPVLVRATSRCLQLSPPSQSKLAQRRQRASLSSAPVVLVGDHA
How it was run: as §1

[1] = target: JAK3(JH1domain-catalytic) (Homo sapiens (Human), UniProt P52333); conditions: read-out: % control
How it was run: as §1

PIM1 = PIM1 (Homo sapiens (Human), UniProt P11309); conditions: read-out: % control
PIM1, sequence (P11309 whole entry): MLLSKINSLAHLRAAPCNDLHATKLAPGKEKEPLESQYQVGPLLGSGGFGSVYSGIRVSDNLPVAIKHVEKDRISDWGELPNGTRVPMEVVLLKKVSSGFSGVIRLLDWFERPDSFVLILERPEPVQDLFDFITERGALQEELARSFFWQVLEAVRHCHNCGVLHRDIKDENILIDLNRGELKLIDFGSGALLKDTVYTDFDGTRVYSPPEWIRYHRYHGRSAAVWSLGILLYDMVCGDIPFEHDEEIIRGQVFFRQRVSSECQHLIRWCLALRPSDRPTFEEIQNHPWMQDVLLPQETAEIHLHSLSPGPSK
How it was run: as §1

GCN2(Kin.Dom.2, S808G) = GCN2(Kin.Dom.2, S808G) (Homo sapiens (Human), UniProt Q9P2K8, S808G); conditions: read-out: % control
How it was run: as §1

TESK1 = TESK1 (Homo sapiens (Human), UniProt Q15569); conditions: read-out: % control
How it was run: as §1

FLT3(D835V) = FLT3(D835V) (Homo sapiens (Human), UniProt P36888, D835V); conditions: read-out: % control
How it was run: as §1

FAK = FAK (Homo sapiens (Human), UniProt Q05397); conditions: read-out: % control
How it was run: as §1

SGK3 = SGK3 (Homo sapiens (Human), UniProt Q96BR1); conditions: read-out: % control
SGK3, sequence (Q96BR1 whole entry): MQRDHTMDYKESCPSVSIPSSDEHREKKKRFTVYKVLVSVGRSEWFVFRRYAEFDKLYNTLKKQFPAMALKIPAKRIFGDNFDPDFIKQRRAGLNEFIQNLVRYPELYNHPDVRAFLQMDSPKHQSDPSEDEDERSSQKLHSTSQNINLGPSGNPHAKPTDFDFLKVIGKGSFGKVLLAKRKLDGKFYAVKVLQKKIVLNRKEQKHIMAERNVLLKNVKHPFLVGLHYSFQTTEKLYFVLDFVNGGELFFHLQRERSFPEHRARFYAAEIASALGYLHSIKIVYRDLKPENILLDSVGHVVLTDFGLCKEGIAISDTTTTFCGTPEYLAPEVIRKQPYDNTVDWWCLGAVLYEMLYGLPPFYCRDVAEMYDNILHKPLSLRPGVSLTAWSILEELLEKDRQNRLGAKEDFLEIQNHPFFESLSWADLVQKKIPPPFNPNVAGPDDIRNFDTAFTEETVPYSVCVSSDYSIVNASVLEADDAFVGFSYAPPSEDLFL
How it was run: as §1

FLT3(D835Y) = FLT3(D835Y) (Homo sapiens (Human), UniProt P36888, D835Y); conditions: read-out: % control
How it was run: as §1

CHEK1 = CHEK1 (Homo sapiens (Human), UniProt O14757); conditions: read-out: % control
How it was run: as §1

EGFR(L858R) = EGFR(L858R) (Homo sapiens (Human), UniProt P00533, L858R); conditions: read-out: % control
How it was run: as §1

TLK1 = TLK1 (Homo sapiens (Human), UniProt Q9UKI8); conditions: read-out: % control
How it was run: as §1

PAK6 = PAK6 (Homo sapiens (Human), UniProt Q9NQU5); conditions: read-out: % control
How it was run: as §1

PCTK3 = PCTK3 (Homo sapiens (Human), UniProt Q07002); conditions: read-out: % control
How it was run: as §1

FLT3(ITD, D835V) = conditions: 1 uM
How it was run: as §1

LATS1 = LATS1 (Homo sapiens (Human), UniProt O95835); conditions: read-out: % control
How it was run: as §1

CDKL1 = CDKL1 (Homo sapiens (Human), UniProt Q00532); conditions: read-out: % control
How it was run: as §1

AURKB = AURKB (Homo sapiens (Human), UniProt Q96GD4); conditions: read-out: % control
How it was run: as §1

PKN1 = PKN1 (Homo sapiens (Human), UniProt Q16512); conditions: read-out: % control
How it was run: as §1

[2] = target: RPS6KA4(Kin.Dom.2-C-terminal) (Homo sapiens (Human), UniProt O75676); conditions: read-out: % control
RPS6KA4(Kin.Dom.2-C-terminal), sequence (O75676 411-674): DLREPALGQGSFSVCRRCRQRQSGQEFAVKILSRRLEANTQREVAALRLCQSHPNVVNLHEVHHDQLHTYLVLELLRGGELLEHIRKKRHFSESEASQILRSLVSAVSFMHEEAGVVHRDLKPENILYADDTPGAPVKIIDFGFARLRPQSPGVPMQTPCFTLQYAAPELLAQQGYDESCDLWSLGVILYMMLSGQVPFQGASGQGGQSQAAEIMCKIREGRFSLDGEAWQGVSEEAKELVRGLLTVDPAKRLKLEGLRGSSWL
How it was run: as §1

[3] = target: RPS6KA4(Kin.Dom.1-N-terminal) (Homo sapiens (Human), UniProt O75676); conditions: read-out: % control
RPS6KA4(Kin.Dom.1-N-terminal), sequence (O75676 33-301): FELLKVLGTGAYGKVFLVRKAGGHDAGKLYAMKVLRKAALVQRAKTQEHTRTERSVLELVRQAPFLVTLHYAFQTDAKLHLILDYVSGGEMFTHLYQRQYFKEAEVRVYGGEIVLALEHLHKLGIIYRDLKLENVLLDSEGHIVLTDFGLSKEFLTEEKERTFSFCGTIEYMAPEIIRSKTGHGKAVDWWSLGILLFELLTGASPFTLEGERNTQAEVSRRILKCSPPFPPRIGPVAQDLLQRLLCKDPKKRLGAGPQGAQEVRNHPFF
How it was run: as §1

[4] = target: EGFR(L747-S752del, P753S) (Homo sapiens (Human), UniProt P00533, DEL747-752/P753S); conditions: read-out: % control
How it was run: as §1

MAP3K15 = MAP3K15 (Homo sapiens (Human), UniProt Q6ZN16); conditions: read-out: % control
How it was run: as §1

TNK2 = TNK2 (Homo sapiens (Human), UniProt Q07912); conditions: read-out: % control
TNK2, sequence (Q07912 whole entry): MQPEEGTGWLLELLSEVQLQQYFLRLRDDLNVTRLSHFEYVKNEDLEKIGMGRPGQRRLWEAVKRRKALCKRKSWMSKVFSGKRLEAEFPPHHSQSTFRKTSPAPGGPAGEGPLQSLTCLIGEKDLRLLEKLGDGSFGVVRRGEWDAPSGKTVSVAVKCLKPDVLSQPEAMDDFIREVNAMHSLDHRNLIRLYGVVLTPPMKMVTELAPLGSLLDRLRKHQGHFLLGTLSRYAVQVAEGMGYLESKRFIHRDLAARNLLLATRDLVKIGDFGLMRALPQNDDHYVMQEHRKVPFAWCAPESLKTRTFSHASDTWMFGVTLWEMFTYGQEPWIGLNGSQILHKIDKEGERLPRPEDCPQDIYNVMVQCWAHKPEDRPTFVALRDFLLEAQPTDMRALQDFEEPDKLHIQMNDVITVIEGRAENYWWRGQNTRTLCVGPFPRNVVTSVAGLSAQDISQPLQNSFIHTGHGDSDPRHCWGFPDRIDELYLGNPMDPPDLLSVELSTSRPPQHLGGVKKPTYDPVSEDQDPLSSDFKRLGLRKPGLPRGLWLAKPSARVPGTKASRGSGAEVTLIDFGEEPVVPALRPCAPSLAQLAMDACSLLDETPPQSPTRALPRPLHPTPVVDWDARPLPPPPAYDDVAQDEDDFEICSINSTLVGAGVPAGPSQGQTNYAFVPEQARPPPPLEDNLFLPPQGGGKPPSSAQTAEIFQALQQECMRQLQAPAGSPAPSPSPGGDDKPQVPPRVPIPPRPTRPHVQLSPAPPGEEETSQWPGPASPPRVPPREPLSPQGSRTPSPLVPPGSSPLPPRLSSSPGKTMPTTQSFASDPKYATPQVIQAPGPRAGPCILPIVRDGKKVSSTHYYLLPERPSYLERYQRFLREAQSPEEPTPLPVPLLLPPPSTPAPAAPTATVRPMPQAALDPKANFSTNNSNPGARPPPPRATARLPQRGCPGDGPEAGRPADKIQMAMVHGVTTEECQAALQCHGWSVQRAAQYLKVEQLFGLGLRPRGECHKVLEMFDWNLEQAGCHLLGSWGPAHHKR
How it was run: as §1

ROCK2 = ROCK2 (Homo sapiens (Human), UniProt O75116); conditions: read-out: % control
ROCK2, sequence (O75116 whole entry): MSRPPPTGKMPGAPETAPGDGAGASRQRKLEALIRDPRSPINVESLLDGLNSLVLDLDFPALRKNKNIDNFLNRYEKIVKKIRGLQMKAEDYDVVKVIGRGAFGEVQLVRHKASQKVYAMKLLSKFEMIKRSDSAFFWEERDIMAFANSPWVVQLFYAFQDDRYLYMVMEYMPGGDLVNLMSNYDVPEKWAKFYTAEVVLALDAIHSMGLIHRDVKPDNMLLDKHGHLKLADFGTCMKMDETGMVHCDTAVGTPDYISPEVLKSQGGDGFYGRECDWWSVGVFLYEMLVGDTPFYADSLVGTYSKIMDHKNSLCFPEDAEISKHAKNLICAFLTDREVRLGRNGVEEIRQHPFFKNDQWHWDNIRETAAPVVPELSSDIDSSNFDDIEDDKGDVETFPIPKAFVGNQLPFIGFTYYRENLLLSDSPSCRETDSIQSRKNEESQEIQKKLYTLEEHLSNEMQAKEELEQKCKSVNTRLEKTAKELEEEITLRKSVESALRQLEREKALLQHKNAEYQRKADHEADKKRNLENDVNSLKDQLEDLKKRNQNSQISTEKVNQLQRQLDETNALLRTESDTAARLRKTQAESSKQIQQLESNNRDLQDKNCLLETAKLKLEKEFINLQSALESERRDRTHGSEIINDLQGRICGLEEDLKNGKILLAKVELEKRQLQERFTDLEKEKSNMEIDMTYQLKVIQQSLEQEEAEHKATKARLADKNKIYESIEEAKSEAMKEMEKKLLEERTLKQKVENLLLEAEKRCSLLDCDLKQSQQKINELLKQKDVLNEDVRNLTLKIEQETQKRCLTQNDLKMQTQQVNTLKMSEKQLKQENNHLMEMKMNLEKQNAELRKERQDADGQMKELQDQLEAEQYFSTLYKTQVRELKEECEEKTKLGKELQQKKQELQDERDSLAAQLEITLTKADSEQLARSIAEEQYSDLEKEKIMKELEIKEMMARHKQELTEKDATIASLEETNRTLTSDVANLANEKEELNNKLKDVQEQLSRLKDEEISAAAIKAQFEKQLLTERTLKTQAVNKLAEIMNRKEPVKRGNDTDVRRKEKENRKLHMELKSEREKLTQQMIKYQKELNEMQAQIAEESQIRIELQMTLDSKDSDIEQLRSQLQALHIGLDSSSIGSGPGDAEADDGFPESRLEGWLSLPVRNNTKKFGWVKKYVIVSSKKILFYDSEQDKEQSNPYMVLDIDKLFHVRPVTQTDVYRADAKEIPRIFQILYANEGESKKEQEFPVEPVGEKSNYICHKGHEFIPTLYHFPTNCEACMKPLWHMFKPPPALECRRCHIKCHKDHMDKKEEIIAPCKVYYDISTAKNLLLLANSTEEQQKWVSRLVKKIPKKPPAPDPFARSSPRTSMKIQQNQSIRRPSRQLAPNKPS
How it was run: as §1

NLK = NLK (Homo sapiens (Human), UniProt Q9UBE8); conditions: read-out: % control
How it was run: as §1

PRKR = PRKR (Homo sapiens (Human), UniProt P19525); conditions: read-out: % control
How it was run: as §1

TBK1 = TBK1 (Homo sapiens (Human), UniProt Q9UHD2); conditions: read-out: % control
How it was run: as §1

BUB1 = BUB1 (Homo sapiens (Human), UniProt O43683); conditions: read-out: % control
How it was run: as §1

PIK3C2G = PIK3C2G (Homo sapiens (Human), UniProt O75747); conditions: read-out: % control
How it was run: as §1

PIK4CB = PIK4CB (Homo sapiens (Human), UniProt Q9UBF8); conditions: read-out: % control
PIK4CB, sequence (Q9UBF8 whole entry): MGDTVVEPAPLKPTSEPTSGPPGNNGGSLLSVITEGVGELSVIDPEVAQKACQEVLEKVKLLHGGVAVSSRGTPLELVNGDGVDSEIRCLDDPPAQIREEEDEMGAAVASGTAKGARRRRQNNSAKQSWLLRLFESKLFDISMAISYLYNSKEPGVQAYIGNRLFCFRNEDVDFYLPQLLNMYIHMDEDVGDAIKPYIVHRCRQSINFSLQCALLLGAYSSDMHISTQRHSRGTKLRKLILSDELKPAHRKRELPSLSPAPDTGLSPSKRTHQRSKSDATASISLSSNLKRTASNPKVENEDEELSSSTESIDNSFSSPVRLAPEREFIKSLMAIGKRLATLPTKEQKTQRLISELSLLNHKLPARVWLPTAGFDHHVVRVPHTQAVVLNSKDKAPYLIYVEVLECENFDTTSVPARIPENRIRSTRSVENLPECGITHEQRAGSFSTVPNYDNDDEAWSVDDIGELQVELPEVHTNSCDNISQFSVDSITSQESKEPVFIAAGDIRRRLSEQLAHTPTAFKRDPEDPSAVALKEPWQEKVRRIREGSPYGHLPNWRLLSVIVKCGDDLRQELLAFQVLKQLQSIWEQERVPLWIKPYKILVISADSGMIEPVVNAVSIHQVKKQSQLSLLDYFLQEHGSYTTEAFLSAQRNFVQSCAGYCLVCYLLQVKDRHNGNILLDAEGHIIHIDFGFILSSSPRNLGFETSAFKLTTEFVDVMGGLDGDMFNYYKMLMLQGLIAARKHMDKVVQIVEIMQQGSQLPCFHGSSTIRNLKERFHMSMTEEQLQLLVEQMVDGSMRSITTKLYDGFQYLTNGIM
How it was run: as §1

EPHB1 = EPHB1 (Homo sapiens (Human), UniProt P54762); conditions: read-out: % control
How it was run: as §1

NIM1 = NIM1 (Homo sapiens (Human), UniProt Q8IY84); conditions: read-out: % control
How it was run: as §1

PRKG1 = PRKG1 (Homo sapiens (Human), UniProt Q13976); conditions: read-out: % control
How it was run: as §1

Row | SMILES | remaining binding at 1 µM (PRKD1) | remaining binding at 1 µM (KIT(V559D, T670I)) | remaining binding at 1 µM (EPHA2) | remaining binding at 1 µM (ERN1) | remaining binding at 1 µM (MKNK2) | remaining binding at 1 µM [1] | remaining binding at 1 µM (PIM1) | remaining binding at 1 µM (GCN2(Kin.Dom.2, S808G)) | remaining binding at 1 µM (TESK1) | remaining binding at 1 µM (FLT3(D835V)) | remaining binding at 1 µM (FAK) | remaining binding at 1 µM (SGK3) | remaining binding at 1 µM (FLT3(D835Y)) | remaining binding at 1 µM (CHEK1) | remaining binding at 1 µM (EGFR(L858R)) | remaining binding at 1 µM (TLK1) | remaining binding at 1 µM (PAK6) | remaining binding at 1 µM (PCTK3) | % control (FLT3(ITD, D835V)) | remaining binding at 1 µM (LATS1) | other results
1 | CCNc1cc(Nc2ccc(C(=O)N3CCC(N4CCOCC4)CC3)cc2OC)nc2[nH]cc(C(F)(F)F)c12 [Example 57, (4-((4-(ethylamino)-3-(trifluoromethyl)-1H-pyrrolo[2,3-b]pyridin-6-yl)amino)-3-methoxyphenyl) (4-morpholinopiperidin-1-yl)methanone] | 73% | 78% | 83% | 61% | 95% | 100% | 94% | 91% | 79% | 92% | 77% | 100% | 88% | 91% | 100% | 73% | 78% | 86% | 100% | 94% | remaining binding at 1 µM (CDKL1): 63%; remaining binding at 1 µM (AURKB): 81%; remaining binding at 1 µM (PKN1): 71%; remaining binding at 1 µM [2]: 100%; remaining binding at 1 µM [3]: 100%; remaining binding at 1 µM [4]: 97%; remaining binding at 1 µM (MAP3K15): 100%; remaining binding at 1 µM (TNK2): 86%; remaining binding at 1 µM (ROCK2): 100%; remaining binding at 1 µM (NLK): 84%; remaining binding at 1 µM (PRKR): 93%; remaining binding at 1 µM (TBK1): 85%; remaining binding at 1 µM (BUB1): 99%; remaining binding at 1 µM (PIK3C2G): 100%; remaining binding at 1 µM (PIK4CB): 100%; remaining binding at 1 µM (EPHB1): 94%; remaining binding at 1 µM (NIM1): 100%; remaining binding at 1 µM (PRKG1): 98%
2 | CCNc1cc(Nc2ccc(C(=O)N3CCC(N4CCOCC4)CC3)cc2OC)nc2[nH]cc(C#N)c12 [Example 18, 4-(ethylamino)-6-((2-methoxy-4-(4-morpholinopiperidine-1-carbonyl)phenyl)amino)-1H-pyrrolo[2,3-b]pyridine-3-carbonitrile] | 14% | 48% | 97% | 24% | 60% | 54% | 59% | 97% | 90% | 74% | 78% | 79% | 82% | 100% | 100% | 100% | 98% | 86% | 100% | 97% | remaining binding at 1 µM (CDKL1): 89%; remaining binding at 1 µM (AURKB): 73%; remaining binding at 1 µM (PKN1): 85%; remaining binding at 1 µM [2]: 0.3%; remaining binding at 1 µM [3]: 100%; remaining binding at 1 µM [4]: 92%; remaining binding at 1 µM (MAP3K15): 53%; remaining binding at 1 µM (TNK2): 92%; remaining binding at 1 µM (ROCK2): 7.8%; remaining binding at 1 µM (NLK): 84%; remaining binding at 1 µM (PRKR): 95%; remaining binding at 1 µM (TBK1): 76%; remaining binding at 1 µM (BUB1): 76%; remaining binding at 1 µM (PIK3C2G): 92%; remaining binding at 1 µM (PIK4CB): 80%; remaining binding at 1 µM (EPHB1): 95%; remaining binding at 1 µM (NIM1): 81%; remaining binding at 1 µM (PRKG1): 64%
